Source: patent US20240327429A1, “[1,3]Thiazolo[4,5-d]-pyrimidon-7-ones as inhibitors of NOX4” (Boehringer Ingelheim International GmbH, priority 2023, published 2024)

Assays:
human NOX1 (hNOX1) = target: T1, human NOX1 (hNOX1) (Homo sapiens, UniProt Q9Y5S8); test: NOX1 inhibition assay (L-012), HEK293 cells stably overexpressing human NOX1; assay type: cell-based; details: HEK293-hNOX1, PMA stimulated
T1 construct: pLV-CMV-hNOX1-puro (NM_007052.5); host or cells: HEK293 (CLS GmbH), lentiviral transduction
T1 sequence (Q9Y5S8 1-564): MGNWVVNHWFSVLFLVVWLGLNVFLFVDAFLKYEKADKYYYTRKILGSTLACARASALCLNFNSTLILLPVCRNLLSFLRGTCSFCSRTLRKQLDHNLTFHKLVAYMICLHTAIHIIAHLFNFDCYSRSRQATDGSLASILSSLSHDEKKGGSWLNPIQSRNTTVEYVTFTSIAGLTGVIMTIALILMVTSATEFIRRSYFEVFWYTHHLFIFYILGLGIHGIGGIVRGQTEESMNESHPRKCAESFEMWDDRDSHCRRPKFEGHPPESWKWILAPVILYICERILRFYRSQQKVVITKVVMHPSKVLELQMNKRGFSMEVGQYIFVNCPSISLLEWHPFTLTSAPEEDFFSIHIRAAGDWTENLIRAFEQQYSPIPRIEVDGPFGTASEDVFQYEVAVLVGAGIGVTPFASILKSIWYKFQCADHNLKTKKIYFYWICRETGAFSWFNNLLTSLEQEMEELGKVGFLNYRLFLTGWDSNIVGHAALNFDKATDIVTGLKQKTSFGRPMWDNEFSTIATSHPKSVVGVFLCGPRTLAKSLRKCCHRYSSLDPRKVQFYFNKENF
T1 sequence (P13498 2-195 partner limits assumed): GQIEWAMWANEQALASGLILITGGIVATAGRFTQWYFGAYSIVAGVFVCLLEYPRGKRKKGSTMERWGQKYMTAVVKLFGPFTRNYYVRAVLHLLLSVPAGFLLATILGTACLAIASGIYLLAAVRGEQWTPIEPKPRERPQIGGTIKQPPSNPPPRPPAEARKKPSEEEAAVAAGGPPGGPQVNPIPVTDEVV
Source text: Plasmids are Purchased from Vectorbuilder. • for HEK-hNOX1 all necessary subunits are cloned accordingly: • pLV-CMV-hNOX1-puro (NM_007052.5) • pLV-CMV-hNOXO1-blas (NM_172168.3) • pLV-CMV-hp22phox-hygro (NM_000101.4) • pLV-CMV-hNOXA1-neo (NM_006647.2) • for HEK-hNOX3 • pLV-CMV-hNOX3-puro (NM_015718.3)
3rd generation lentiviral particles are produced in HEK293 suspension cells by transient transfection of three helper and expression plasmids. Crucial lentivirus supernatants are harvested, clarified by filtration and concentrated by precipitation. Lentivirus titers are determined in transducing units in (TU/mL) by transduction of HT1080 cells and colony forming assay. Parental HEK293 cells, purchased from CLS GmbH, are transduced with replication-incompetent 3rd generation lentiviral particles (MOI 2) and expanded for at least 2 weeks before cryopreservation of tested lots. During cultivation, medium is changed three times per week and cells are sub-cultured at least once per week. Selection antibiotics are added according to the plasmids (1 μg/ml puromycin, 1.5 μg/ml blasticidin, 200 μg/ml G418 and 100 μg/ml hygromycin).
Evaluation of the NOX4 inhibitors on NOX1 activity is assessed in HEK293 cells stably overexpressing human NOX1 (hNOX1).
Lastly, 8-amino-5-chloro-2,3-dihydro-7-phenyl-pyrido[3,4-d]pyridazine-1,4-dione sodium salt (L-012, CAS 143556-24-5) is added at 400 μM to all wells, and cells are incubated in an incubator for an additional 3 h. Afterwards luminescence is measured with a SpectraMax Paradigm Microplate Reader.

human NOX4 (hNOX4) = target: T2, human NOX4 (hNOX4) (Homo sapiens, UniProt Q9NPH5); test: cell-based
T2 sequence (Q9NPH5 1-578): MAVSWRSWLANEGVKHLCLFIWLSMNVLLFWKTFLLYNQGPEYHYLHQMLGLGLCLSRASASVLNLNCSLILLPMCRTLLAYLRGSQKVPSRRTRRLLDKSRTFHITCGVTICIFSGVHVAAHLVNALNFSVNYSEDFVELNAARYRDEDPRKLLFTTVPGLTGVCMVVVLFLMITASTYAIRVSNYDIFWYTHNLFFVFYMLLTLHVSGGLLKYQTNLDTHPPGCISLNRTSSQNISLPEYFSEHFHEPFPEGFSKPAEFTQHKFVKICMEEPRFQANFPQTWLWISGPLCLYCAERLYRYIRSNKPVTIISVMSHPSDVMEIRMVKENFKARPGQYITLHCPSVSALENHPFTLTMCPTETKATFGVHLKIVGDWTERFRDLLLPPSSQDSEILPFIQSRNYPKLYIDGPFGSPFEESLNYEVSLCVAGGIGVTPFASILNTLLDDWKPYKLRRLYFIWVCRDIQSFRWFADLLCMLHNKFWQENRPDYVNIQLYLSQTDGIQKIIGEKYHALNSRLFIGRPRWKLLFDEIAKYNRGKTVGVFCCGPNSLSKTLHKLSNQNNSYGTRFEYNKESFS
T2 sequence (P13498 2-195 partner limits assumed): T1 sequence (P13498 2-195 partner limits assumed)
Description: The synthetic gene phNOX4_DNA3_1_Zeo (Accession: AAF68973) is assembled from synthetic oligonucleotides and/or PCR products. The fragment is cloned into pcDNA3.1_Zeo_A011 using NheI and XhoI cloning sites. The plasmid DNA is purified from transformed bacteria and its concentration is determined by UV spectroscopy. The final construct is verified by sequencing. The plasmid is transfected via electroporation (Amaxa electroporation device) in combination with Nucleofector Kit V. Selection of NOX4 overexpressing genes is achieved using selection antibiotic Zeocin.
The inhibitory activity of the example compounds of the invention is determined using the following procedure:
Cells are cultured in the Dulbecco's Modified Eagle Medium (DMEM) media containing 4.5 g/L glucose supplemented with 10% fetal calf serum and 250 μg/ml Zeocin in an incubator at 37° C. with 5% CO2. For the assay, cells are seeded in 384 well plates.
After incubation Lumigen HyPerBlu™ is added and cells are incubated for additional 30 min at 24° C. in a humidified incubator. Next, luminescence is measured using an Envision Multimode Plate reader to determine levels of produced H2O2 in the wells.

| SMILES | IC50 (human NOX1 (hNOX1)) [nM] | IC50 (human NOX4 (hNOX4)) [nM] |
| --- | --- | --- |
| O=c1c2scnc2nc(SCc2ccc(Cl)cc2F)n1-c1cnc(O)nc1 [Example 53, 5-((4-Chloro-2-fluorobenzyl)thio)-6-(2-hydroxypyrimidin-5-yl)thiazolo[4,5-d]pyrimidin-7(6H)-one] | > 100000 | 116 |
| O=c1c2scnc2nc(SCc2ccc(C(F)(F)F)cc2)n1-c1ccc(O)nn1 [Example 66] | > 100000 | 137 |
| O=c1c2scnc2nc(SCc2c(F)cc(F)cc2F)n1-c1cnc(O)cc1F [Example 49, 6-(4-Fluoro-6-hydroxypyridin-3-yl)-5-((2,4,6-trifluorobenzyl)thio)thiazolo[4,5-d]pyrimidin-7(6H)-one] | > 100000 | 45 |
| O=c1c2scnc2nc(SCc2c(F)cc(F)cc2F)n1-c1ncc(O)cn1 [Example 21, 6-(5-Hydroxypyrimidin-2-yl)-5-((2,4,6-trifluorobenzyl)thio)thiazolo[4,5-d]pyrimidin-7(6H)-one] | > 100000 | 174 |
| O=c1c2scnc2nc(SCc2ccc(F)cc2Br)n1-c1cnc(O)c(F)c1 [Example 44] | 43200 | 63 |
| Cc1cc(Cl)ccc1CSc1nc2ncsc2c(=O)n1-c1ccc(O)nc1 [Example 23] | 48100 | 96 |
| Cc1cc(F)cc(C)c1CSc1nc2ncsc2c(=O)n1-c1ccc(O)nn1 [Example 63] | 43400 | 126 |
| O=c1c2scnc2nc(SCc2ccc(C(F)(F)F)cc2)n1-c1cnc(O)nc1 [Example 60] | > 100000 | 237 |
| O=c1c2scnc2nc(SCc2ccc(C(F)(F)F)cc2)n1-c1cnc(O)c(F)c1 [Example 32, 6-(5-Fluoro-6-hydroxypyridin-3-yl)-5-((4-(trifluoromethyl)benzyl)thio)thiazolo[4,5-d]pyrimidin-7(6H)-one] | > 100000 | 40 |
| O=c1c2scnc2nc(SCc2ccc(Cl)cc2)n1-c1ccc(O)nn1 [Example 64] | > 100000 | 133 |
| O=c1c2scnc2nc(SCc2c(F)cc(F)cc2F)n1-c1cnc(O)cn1 [Example 69, 6-(5-Hydroxypyrazin-2-yl)-5-((2,4,6-trifluorobenzyl)thio)thiazolo[4,5-d]pyrimidin-7(6H)-one] | > 100000 | 65 |

Now those with a lower IC50 (human NOX1 (hNOX1)), led by results:

| IC50 (human NOX1 (hNOX1)) [nM] | IC50 (human NOX4 (hNOX4)) [nM] | SMILES |
| --- | --- | --- |
| 36700 | 201 | O=c1c2scnc2nc(SCc2c(F)cc(F)cc2F)n1-c1cnc(O)c(Cl)c1 [Example 48, 6-(5-Chloro-6-hydroxypyridin-3-yl)-5-((2,4,6-trifluorobenzyl)thio)thiazolo[4,5-d]pyri-midin-7(6H)-one] |
| 4100 | 33 | O=c1c2scnc2nc(SCc2c(F)cc(F)cc2F)n1-c1ccc(O)cc1 [Example 15] |
| 11800 | 140 | Cc1cc(F)ccc1CSc1nc2ncsc2c(=O)n1-c1cnc(O)nc1 [Example 58] |
| 21000 | 206 | O=c1c2scnc2nc(SCc2c(F)cc(F)cc2F)n1-c1cnc(O)nc1 [Example 59] |
| 30900 | 113 | O=c1c2scnc2nc(SCc2c(F)ccc(F)c2F)n1-c1cnc(O)c(F)c1 [Example 45] |
| 35500 | 29 | O=c1c2scnc2nc(SCc2ccc(Cl)cc2)n1-c1cnc(O)c(F)c1 [Example 33] |
| 37800 | 539 | O=c1c2scnc2nc(SCc2ccc(F)cc2)n1-c1ccc(O)nc1 [Example 30] |
| 1100 | 43 | O=c1c2scnc2nc(SCc2c(F)cc(F)cc2F)n1-c1cc(F)c(O)c(F)c1 [Example 8] |
| 33000 | 120 | O=c1c2scnc2nc(SCc2ccc(C(F)(F)F)cc2F)n1-c1ccc(O)nc1 [Example 26] |
| 2300 | 38 | O=c1c2scnc2nc(SCc2c(F)cc(F)cc2F)n1-c1ccc(O)cc1F [Example 14] |
| 15000 | 367 | O=c1c2scnc2nc(SCc2c(F)cc(F)cc2F)n1-c1ccc(O)c(Cl)c1 [Example 16] |
| 27600 | 47 | O=c1c2scnc2nc(SCc2c(F)cc(F)cc2F)n1-c1ccc(O)nc1F [Example 50, 6-(2-Fluoro-6-hydroxypyridin-3-yl)-5-((2,4,6-trifluorobenzyl)thio)thiazolo[4,5-d]-pyrimidin-7(6H)-one] |
| 11000 | 143 | Cc1cc(F)ccc1CSc1nc2ncsc2c(=O)n1-c1ccc(O)nn1 [Example 68] |
| 20600 | 98 | Cc1cc(F)cc(C)c1CSc1nc2ncsc2c(=O)n1-c1ccc(O)nc1 [Example 24] |
| 4900 | 426 | N#Cc1cc(-n2c(SCc3c(F)cc(F)cc3F)nc3ncsc3c2=O)cnc1O [Example 47, 2-Hydroxy-5-(7-oxo-5-((2,4,6-trifluorobenzyl)thio)thiazolo[4,5-d]pyrimidin-6(7H)-yl)-nicotinonitrile] |
